Source: ChEMBL document CHEMBL1201862, “PubChem BioAssay data set” (2004)
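Interpolation was linear, between the two tested concentrations surrounding the appropriate level; five concentrations were tested over 48 hours in 96-well plates. At the GI50, growth is halved.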 Active and inactive are the calls of the source. No stated cut-off is given here; in the data, active = GI50 up to about 1.1 µM and inactive = higher.

What was measured:
Assay in all cases: NCI tumour cell line growth inhibition, 48 h
OVCAR-5 = tested on: OVCAR-5
HOP-62 = tested on: HOP-62
MCF7 = tested on: MCF7
HCT-116 = tested on: HCT-116
CCRF-CEM = tested on: CCRF-CEM
UO-31 = tested on: UO-31
RXF 393 = tested on: RXF 393
Malme-3M = tested on: Malme-3M
SW-620 = tested on: SW-620
HCC 2998 = tested on: HCC 2998
SNB-19 = tested on: SNB-19
HCT-15 = tested on: HCT-15
SK-MEL-28 = tested on: SK-MEL-28
EKVX = tested on: EKVX
HT-29 = tested on: HT-29
K562 = tested on: K562
NCI-H522 = tested on: NCI-H522
SK-OV-3 = tested on: SK-OV-3
SK-MEL-5 = tested on: SK-MEL-5
OVCAR-4 = tested on: OVCAR-4

Compound	GI50 (OVCAR-5)	GI50 (HOP-62)	GI50 (MCF7)	GI50 (HCT-116)	GI50 (CCRF-CEM)	GI50 (UO-31)	GI50 (RXF 393)	GI50 (Malme-3M)	GI50 (SW-620)	GI50 (HCC 2998)	GI50 (SNB-19)	GI50 (HCT-15)	GI50 (SK-MEL-28)	GI50 (EKVX)	GI50 (HT-29)	GI50 (K562)	GI50 (NCI-H522)	GI50 (SK-OV-3)	GI50 (SK-MEL-5)	GI50 (OVCAR-4)
CCOC(=O)C(NC(=O)Nc1ccccc1)(Nc1cccc(Cl)c1)C(F)(F)F (centres undefined)	> 100 µM (inactive)	> 100 µM (inactive)	> 100 µM (inactive)	> 100 µM (inactive)	45.1 µM (inactive)	> 100 µM (inactive)	20.7 µM (inactive)	> 100 µM (inactive)	> 100 µM (inactive)	> 100 µM (inactive)	> 100 µM (inactive)	> 100 µM	> 100 µM (inactive)	> 100 µM (inactive)	> 100 µM (inactive)	> 100 µM (inactive)	92.9 µM (inactive)	> 100 µM (inactive)	> 100 µM (inactive)	–
COc1ccc(/C=C2/C(=O)N(C(=O)c3ccccc3O)N=C2C)cc1OC	3.9 µM (inactive)	1.99 µM (inactive)	0.361 µM (active)	0.275 µM (active)	0.337 µM (active)	0.202 µM (active)	0.0214 µM (active)	0.849 µM (active)	3.27 µM (inactive)	> 24.3 µM (inactive)	–	0.64 µM	23.9 µM (inactive)	1.38 µM (inactive)	16.8 µM (inactive)	–	1.71 µM (inactive)	1.21 µM (inactive)	0.982 µM (active)	2.44 µM (inactive)
COC1=CC(=O)C=C(OC)C1=O [2,6-DIMETHOXYQUINONE]	28.1 µM (inactive)	25.3 µM (inactive)	17.7 µM (inactive)	6.49 µM (inactive)	1.38 µM (inactive)	23.6 µM (inactive)	7.96 µM (inactive)	20.2 µM (inactive)	6.37 µM (inactive)	27.9 µM (inactive)	13.6 µM (inactive)	31.6 µM	21.8 µM (inactive)	5.69 µM (inactive)	27.4 µM (inactive)	7.1 µM (inactive)	7.05 µM (inactive)	17.9 µM (inactive)	20.9 µM (inactive)	7.43 µM (inactive)
CCOC(=O)Oc1ccc(C(CNC(C)C)OC(=O)OCC)cc1OC(=O)OCC (centres undefined)	> 100 µM (inactive)	> 100 µM (inactive)	> 100 µM (inactive)	> 100 µM (inactive)	48.1 µM (inactive)	43.4 µM (inactive)	11.5 µM (inactive)	> 100 µM (inactive)	> 100 µM (inactive)	> 100 µM (inactive)	> 100 µM (inactive)	> 100 µM	> 100 µM (inactive)	> 100 µM (inactive)	> 100 µM (inactive)	> 100 µM (inactive)	49.9 µM (inactive)	> 100 µM (inactive)	> 100 µM (inactive)	65.5 µM (inactive)
CC1(C)N=C(N)N=C(N)N1c1ccc(OCCCOc2ccccc2)c(Cl)c1	0.295 µM (active)	–	0.327 µM (active)	0.026 µM (active)	0.175 µM (active)	–	0.479 µM (active)	0.49 µM (active)	0.0356 µM (active)	0.315 µM (active)	0.0379 µM (active)	2.48 µM	0.809 µM (active)	0.303 µM (active)	0.0161 µM (active)	2.48 µM (inactive)	0.247 µM (active)	7.31 µM (inactive)	0.265 µM (active)	0.156 µM (active)
CC(C)c1ccccc1SCc1cc(=O)cc(CSc2ccccc2C(C)C)o1	15.3 µM (inactive)	20.7 µM (inactive)	18.2 µM (inactive)	–	26.9 µM (inactive)	27.4 µM (inactive)	31 µM (inactive)	25.2 µM (inactive)	34.2 µM (inactive)	30.3 µM (inactive)	32.7 µM (inactive)	24.7 µM	32.7 µM (inactive)	19.3 µM (inactive)	19.8 µM (inactive)	48.1 µM (inactive)	–	22.1 µM (inactive)	24.1 µM (inactive)	19.5 µM (inactive)
CN(C)c1ccc(N2C(=S)SC(=N\c3ccccc3)/C2=N/c2ccccc2)cc1	> 100 µM (inactive)	> 100 µM (inactive)	> 100 µM (inactive)	> 100 µM (inactive)	> 100 µM (inactive)	> 100 µM (inactive)	3.43 µM (inactive)	> 100 µM (inactive)	–	> 100 µM (inactive)	> 100 µM (inactive)	> 100 µM	> 100 µM (inactive)	–	–	> 100 µM (inactive)	> 100 µM (inactive)	> 100 µM (inactive)	> 100 µM (inactive)	> 100 µM (inactive)
CN(C)CCn1c(=O)c2ccc3c4c(nn3CCN(C)C)c3cc([N+](=O)[O-])ccc3n(c1=O)c24	< 0.0253 µM (active)	< 0.0212 µM (active)	0.0667 µM (active)	< 0.0154 µM (active)	< 0.0125 µM (active)	0.0661 µM (active)	0.12 µM (active)	0.328 µM (active)	< 0.0134 µM (active)	0.0411 µM (active)	0.0438 µM (active)	0.0261 µM	0.51 µM (active)	0.115 µM (active)	< 0.0112 µM (active)	0.0394 µM (active)	< 0.01 µM (active)	0.0783 µM (active)	0.594 µM (active)	0.0189 µM (active)
C=CCn1c(=O)c(C)cn(COCCO)c1=O	> 100 µM (inactive)	> 100 µM (inactive)	> 100 µM (inactive)	–	> 100 µM (inactive)	> 100 µM (inactive)	> 100 µM (inactive)	> 100 µM (inactive)	> 100 µM (inactive)	> 100 µM (inactive)	> 100 µM (inactive)	–	> 100 µM (inactive)	> 100 µM (inactive)	> 100 µM (inactive)	> 100 µM (inactive)	> 100 µM (inactive)	–	> 100 µM (inactive)	–
COc1ccc2nc3ccc(OC)cc3c([S+]([O-])CCCl)c2c1 (centres undefined)	14.9 µM (inactive)	18.1 µM (inactive)	2.31 µM (inactive)	1.83 µM (inactive)	2.42 µM (inactive)	2.28 µM (inactive)	3.59 µM (inactive)	1.69 µM (inactive)	3.3 µM (inactive)	23.2 µM (inactive)	22.5 µM (inactive)	2.65 µM	3.73 µM (inactive)	10.5 µM (inactive)	2.04 µM (inactive)	–	1.67 µM (inactive)	20.7 µM (inactive)	14.9 µM (inactive)	5.05 µM (inactive)
CCC1(c2ccccc2)C(=O)N=C(c2ccccc2)N1CCc1ccccc1 (centres undefined)	> 100 µM (inactive)	> 100 µM (inactive)	> 100 µM (inactive)	> 100 µM (inactive)	> 100 µM (inactive)	> 100 µM (inactive)	> 100 µM (inactive)	> 100 µM (inactive)	> 100 µM (inactive)	> 100 µM (inactive)	> 100 µM (inactive)	> 100 µM	> 100 µM (inactive)	> 100 µM (inactive)	> 100 µM (inactive)	> 100 µM (inactive)	> 100 µM (inactive)	> 100 µM (inactive)	> 100 µM (inactive)	> 100 µM (inactive)
COc1cc(C2c3cc4c(cc3[C@@H](Nc3cnc5ccccc5c3)C3COC(=O)[C@H]23)OCO4)cc(OC)c1O (some centres undefined)	0.736 µM (active)	0.128 µM (active)	0.0834 µM (active)	0.46 µM (active)	0.043 µM (active)	0.275 µM (active)	0.912 µM (active)	0.621 µM (active)	0.296 µM (active)	0.794 µM (active)	0.221 µM (active)	0.148 µM	1.14 µM (inactive)	1.27 µM (inactive)	0.634 µM (active)	0.649 µM (active)	1.03 µM (active)	0.615 µM (active)	0.193 µM (active)	1.05 µM (active)
COc1cccc(C(=O)N[C@@H]2[C@H](O)[C@@H](CO)O[C@H]2n2cnc3c(N)ncnc32)c1	> 100 µM (inactive)	> 100 µM (inactive)	> 100 µM (inactive)	> 100 µM (inactive)	> 100 µM (inactive)	> 100 µM (inactive)	> 100 µM (inactive)	> 100 µM (inactive)	> 100 µM (inactive)	> 100 µM (inactive)	> 100 µM (inactive)	> 100 µM	> 100 µM (inactive)	> 100 µM (inactive)	> 100 µM (inactive)	> 100 µM (inactive)	> 100 µM (inactive)	> 100 µM (inactive)	> 100 µM (inactive)	> 100 µM (inactive)
C=C1C(=O)OC2C1CC1OC2C(C)CCC/C(C)=C\CCC1(C)O (centres undefined)	69.2 µM (inactive)	32.2 µM (inactive)	15.3 µM (inactive)	13.5 µM (inactive)	6.82 µM (inactive)	32.3 µM (inactive)	5.7 µM (inactive)	32.7 µM (inactive)	10.9 µM (inactive)	20.3 µM (inactive)	49.1 µM (inactive)	18.2 µM	16.4 µM (inactive)	20.4 µM (inactive)	30.3 µM (inactive)	12.7 µM (inactive)	8.71 µM (inactive)	65.3 µM (inactive)	5.14 µM (inactive)	18.2 µM (inactive)
C[C@]12CC[C@H](O)C=C1CC[C@@H]1[C@@H]2CC[C@]2(C)C(c3ccc(=O)oc3)CC[C@]12O (some centres undefined)	0.108 µM (active)	0.0125 µM (active)	0.015 µM (active)	0.0125 µM (active)	0.0125 µM (active)	0.0141 µM (active)	–	0.0135 µM (active)	0.0149 µM (active)	0.0372 µM (active)	0.0327 µM (active)	0.0175 µM	0.0266 µM (active)	0.0311 µM (active)	0.035 µM (active)	0.0125 µM (active)	0.0125 µM (active)	0.0294 µM (active)	0.0125 µM (active)	0.0146 µM (active)
